Experiments:
Test in all cases: relative viability (nuclei count vs DMSO), 5 days (fraction); higher = more cells survive
NCI-H1915 = system: NCI-H1915
Method in brief: (§1)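 Relative viability equals treated-well nuclei counts divided by vehicle-well nuclei counts. Counts came from 4× images of lung cancer cell lines grown in 1536-well plates for 5 days after pin-tool dosing on the day after seeding. Dosing used one drug alone or a fixed anchor-drug dose plus five library-drug doses (not always all listed) in √10 steps, and values are medians of duplicate plates.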

NCI-H2347 = system: NCI-H2347
Method in brief: as §1

NCI-H2126 = system: NCI-H2126
Method in brief: as §1

HCC-15 = system: HCC-15
Method in brief: as §1

NCI-H2228 = system: NCI-H2228
Method in brief: as §1

NCI-H460 = system: NCI-H460
Method in brief: as §1

HOP-62 = system: HOP-62
Method in brief: as §1

NCI-H1975 = system: NCI-H1975
Method in brief: as §1

PC-3 [JPC-3] = system: PC-3 [JPC-3]
Method in brief: as §1

A-427 = system: A-427
Method in brief: as §1

SW 1573 = system: SW 1573
Method in brief: as §1

NCI-H1792 = system: NCI-H1792
Method in brief: as §1

NCI-H2342 = system: NCI-H2342
Method in brief: as §1

LC-2-ad = system: LC-2-ad
Method in brief: as §1

RERF-LC-KJ = system: RERF-LC-KJ
Method in brief: as §1

LXF-289 = system: LXF-289
Method in brief: as §1

NCI-H358 = system: NCI-H358
Method in brief: as §1

LOU-NH91 = system: LOU-NH91
Method in brief: as §1

NCI-H1755 = system: NCI-H1755
Method in brief: as §1

NCI-H1734 = system: NCI-H1734
Method in brief: as §1

NCI-H647 = system: NCI-H647
Method in brief: as §1

SK-LU-1 = system: SK-LU-1
Method in brief: as §1

O=C(O)c1ccc(-c2c[nH]c3ncc(-c4ccccc4)cc23)cc1C1CCCC1 + CCNC(=O)c1noc(-c2cc(C(C)C)c(O)cc2O)c1-c1ccc(CN2CCOCC2)cc1 [Luminespib] (partner 0.01 µM)
relative viability (NCI-H1915; first compound 0.04 µM): 0.784
relative viability (NCI-H1915; first compound 0.1265 µM): 0.714
relative viability (NCI-H1915; first compound 0.4 µM): 0.643
relative viability (NCI-H1915; first compound 1.265 µM): 0.506
relative viability (NCI-H2347; first compound 0.04 µM): 0.444
relative viability (NCI-H2347; first compound 0.1265 µM): 0.794
relative viability (NCI-H2347; first compound 0.4 µM): 0.275
relative viability (NCI-H2347; first compound 1.265 µM): 0.408
relative viability (NCI-H2126; first compound 0.04 µM): 0.937
relative viability (NCI-H2126; first compound 0.1265 µM): 0.955
relative viability (NCI-H2126; first compound 0.4 µM): 0.796
relative viability (NCI-H2126; first compound 1.265 µM): 0.619
relative viability (HCC-15; first compound 0.04 µM): 0.266
relative viability (HCC-15; first compound 0.1265 µM): 0.384
relative viability (HCC-15; first compound 0.4 µM): 0.265
relative viability (HCC-15; first compound 1.265 µM): 0.192
relative viability (NCI-H2228; first compound 0.04 µM): 0.144
relative viability (NCI-H2228; first compound 0.1265 µM): 0.188
relative viability (NCI-H2228; first compound 0.4 µM): 0.0961
relative viability (NCI-H2228; first compound 1.265 µM): 0.0961
relative viability (NCI-H460; first compound 0.04 µM): 0.0285
relative viability (NCI-H460; first compound 0.1265 µM): 0.0329
relative viability (NCI-H460; first compound 0.4 µM): 0.0398
relative viability (NCI-H460; first compound 1.265 µM): 0.0257
relative viability (HOP-62; first compound 0.04 µM): 0.989
relative viability (HOP-62; first compound 0.1265 µM): 0.997
relative viability (HOP-62; first compound 0.4 µM): 0.86
relative viability (HOP-62; first compound 1.265 µM): 0.737
relative viability (NCI-H1975; first compound 0.04 µM): 0.131
relative viability (NCI-H1975; first compound 0.1265 µM): 0.302
relative viability (NCI-H1975; first compound 0.4 µM): 0.199
relative viability (NCI-H1975; first compound 1.265 µM): 0.338
relative viability (PC-3 [JPC-3]; first compound 0.04 µM): 0.678
relative viability (PC-3 [JPC-3]; first compound 0.1265 µM): 0.761
relative viability (PC-3 [JPC-3]; first compound 0.4 µM): 0.619
relative viability (PC-3 [JPC-3]; first compound 1.265 µM): 0.569
relative viability (A-427; first compound 0.04 µM): 0.956
relative viability (A-427; first compound 0.1265 µM): 1.01
relative viability (A-427; first compound 0.4 µM): 0.647
relative viability (A-427; first compound 1.265 µM): 0.577
relative viability (SW 1573; first compound 0.04 µM): 0.563
relative viability (SW 1573; first compound 0.1265 µM): 0.486
relative viability (SW 1573; first compound 0.4 µM): 0.292
relative viability (SW 1573; first compound 1.265 µM): 0.383
relative viability (NCI-H1792; first compound 0.1265 µM): 0.477
relative viability (NCI-H1792; first compound 0.4 µM): 0.351
relative viability (NCI-H1792; first compound 1.265 µM): 0.519
relative viability (NCI-H2342; first compound 0.04 µM): 0.773
relative viability (NCI-H2342; first compound 0.1265 µM): 0.715
relative viability (NCI-H2342; first compound 0.4 µM): 0.758
relative viability (NCI-H2342; first compound 1.265 µM): 0.678
relative viability (LC-2-ad; first compound 0.04 µM): 0.874
relative viability (LC-2-ad; first compound 0.1265 µM): 1.08
relative viability (LC-2-ad; first compound 0.4 µM): 0.822
relative viability (LC-2-ad; first compound 1.265 µM): 0.566
relative viability (RERF-LC-KJ; first compound 0.04 µM): 1.32
relative viability (RERF-LC-KJ; first compound 0.1265 µM): 1.19
relative viability (RERF-LC-KJ; first compound 0.4 µM): 1.1
relative viability (RERF-LC-KJ; first compound 1.265 µM): 0.645
relative viability (LXF-289; first compound 0.04 µM): 0.749
relative viability (LXF-289; first compound 0.1265 µM): 0.614
relative viability (LXF-289; first compound 0.4 µM): 0.484
relative viability (LXF-289; first compound 1.265 µM): 0.171
relative viability (NCI-H358; first compound 0.04 µM): 0.45
relative viability (NCI-H358; first compound 0.1265 µM): 0.192
relative viability (NCI-H358; first compound 0.4 µM): 0.249
relative viability (NCI-H358; first compound 1.265 µM): 0.165
relative viability (LOU-NH91; first compound 0.04 µM): 0.323
relative viability (LOU-NH91; first compound 0.1265 µM): 0.33
relative viability (LOU-NH91; first compound 0.4 µM): 0.278
relative viability (LOU-NH91; first compound 1.265 µM): 0.472
relative viability (NCI-H1755; first compound 0.04 µM): 0.375
relative viability (NCI-H1755; first compound 0.1265 µM): 0.644
relative viability (NCI-H1755; first compound 0.4 µM): 0.695
relative viability (NCI-H1755; first compound 1.265 µM): 0.574
relative viability (NCI-H1734; first compound 0.04 µM): 0.186
relative viability (NCI-H1734; first compound 0.1265 µM): 0.194
relative viability (NCI-H1734; first compound 0.4 µM): 0.224
relative viability (NCI-H1734; first compound 1.265 µM): 0.202
relative viability (NCI-H647; first compound 0.04 µM): 0.148
relative viability (NCI-H647; first compound 0.1265 µM): 0.152
relative viability (NCI-H647; first compound 0.4 µM): 0.18
relative viability (NCI-H647; first compound 1.265 µM): 0.16
relative viability (SK-LU-1; first compound 0.04 µM): 0.204
relative viability (SK-LU-1; first compound 0.1265 µM): 0.196
relative viability (SK-LU-1; first compound 0.4 µM): 0.231
relative viability (SK-LU-1; first compound 1.265 µM): 0.179

From the supplement of paper PMC10307832
